Test system: B16-F0
Assay: Cytotoxicity assay C50/G50, MTT or resazurin (Example 16)
Type: cell-based
Settings: Mus musculus, B16F0, day-3, read-out: G50 (concentration inhibiting cell growth by 50%)
Method: (§1) Cell culture. Tumor cell lines (B16-F0, Caco-2, DU-145, HT-29, MDA-MB-231 and other cell lines described so far in the patent application) were obtained from the American Type Culture Collection (ATCC HTB-26; Bethesda, Md.). Cells were grown in RPMI 1640 medium supplemented with 10% fetal bovine serum (Hyclone, Road Logan, Utah) and were cultured in a humidified atmosphere at 37° C. in 5% CO2.
(§2) Drugs: All drugs were dissolved in DMSO and the final concentration of DMSO in the culture medium was maintained at 0.5% (v/v).
(§3) Cytotoxiciy assays. At day-1, tumor cells in suspension in 100 μl were plated in microtiter plates (96 wells). On day-0, tumor cells were treated by addition of escalating concentrations of the drug (100 μl solution). On that day, the number of living cells was determined in wells that were untreated. This was performed in order to be able to evaluate the toxic concentration of the drug needed to kill 50% of the cellular population present at the beginning of the experiments. This value is represented by C50 in the table. At day-3, the number of living cells is determined using either MTT or resazurin assays. Growth inhibition activity of these compounds was expressed as the concentration of CAU inhibiting cell growth by 50% G50 in the following table
(§4) The MTT assay was as described above in Example 1. The Resazurin assay was performed as follows:
(§5) Aspirate the supernatant (cell suspension: centrifuge first)
(§6) Add 100 μL NaCl 0.9% (saline)
(§7) Add 50 μL RZ (resazurin 125 μg/ml/PBS: RPMI without FBS; 1:4) Incubate at 37° C.
(§8) Collect fluorescence data at different time.

Compound	IC50
CCCCCCc1ccc(NC(=O)NC(CCl)CCC)cc1 (racemic) [Example 14]	15.8 µM
CCCCCCc1ccc(NC(=O)N[C@H](C)CCl)cc1 [Example 6]	26.3 µM
CCCCCCc1ccc(NC(=O)N[C@@H](C)CCl)cc1 [Example 7]	16.3 µM
C[C@@H](CCl)NC(=O)Nc1ccc(C2CCCCC2)cc1 [Example 8]	21.8 µM
C[C@H](CCl)NC(=O)Nc1ccc(C2CCCCC2)cc1 [Example 9]	15.4 µM
CCCCCCc1ccc(NC(=O)N[C@H](CC)CCl)cc1 [Example 10]	18.8 µM
CCCCCCc1ccc(NC(=O)N[C@@H](CC)CCl)cc1 [Example 11]	14.1 µM
CC[C@H](CCl)NC(=O)Nc1ccc(C2CCCCC2)cc1 [Example 12]	17.3 µM
CC[C@@H](CCl)NC(=O)Nc1ccc(C2CCCCC2)cc1 [Example 13]	15.5 µM

Same assay, conditions: day-3

Compound	C50 (concentration needed to kill 50% of the cellular population present at the beginning)
CCCCCCc1ccc(NC(=O)NC(CCl)CCC)cc1 (racemic) [Example 14]	21.3 µM
CCCCCCc1ccc(NC(=O)N[C@H](C)CCl)cc1 [Example 6]	31.3 µM
CCCCCCc1ccc(NC(=O)N[C@@H](C)CCl)cc1 [Example 7]	18.2 µM
C[C@@H](CCl)NC(=O)Nc1ccc(C2CCCCC2)cc1 [Example 8]	22.1 µM
C[C@H](CCl)NC(=O)Nc1ccc(C2CCCCC2)cc1 [Example 9]	17.4 µM
CCCCCCc1ccc(NC(=O)N[C@H](CC)CCl)cc1 [Example 10]	24.9 µM
CCCCCCc1ccc(NC(=O)N[C@@H](CC)CCl)cc1 [Example 11]	18.3 µM
CC[C@H](CCl)NC(=O)Nc1ccc(C2CCCCC2)cc1 [Example 12]	21.5 µM
CC[C@@H](CCl)NC(=O)Nc1ccc(C2CCCCC2)cc1 [Example 13]	17.7 µM

Test system: DU-145
Assay: as above
Type: cell-based
Settings: Homo sapiens, day-3, read-out: G50 (concentration inhibiting cell growth by 50%)
Method: as §1, §2, §3, §4, §5, §6, §7, §8

Compound	IC50
CCCCCCc1ccc(NC(=O)NC(CCl)CCC)cc1 (racemic) [Example 14]	10.9 µM
CCCCCCc1ccc(NC(=O)N[C@H](C)CCl)cc1 [Example 6]	18.9 µM
CCCCCCc1ccc(NC(=O)N[C@@H](C)CCl)cc1 [Example 7]	6.3 µM
C[C@@H](CCl)NC(=O)Nc1ccc(C2CCCCC2)cc1 [Example 8]	8.6 µM
C[C@H](CCl)NC(=O)Nc1ccc(C2CCCCC2)cc1 [Example 9]	7.8 µM
CCCCCCc1ccc(NC(=O)N[C@H](CC)CCl)cc1 [Example 10]	7.4 µM
CCCCCCc1ccc(NC(=O)N[C@@H](CC)CCl)cc1 [Example 11]	4.6 µM
CC[C@H](CCl)NC(=O)Nc1ccc(C2CCCCC2)cc1 [Example 12]	7.3 µM
CC[C@@H](CCl)NC(=O)Nc1ccc(C2CCCCC2)cc1 [Example 13]	6.9 µM

Same assay, conditions: day-3

Compound	C50 (concentration needed to kill 50% of the cellular population present at the beginning)
CCCCCCc1ccc(NC(=O)NC(CCl)CCC)cc1 (racemic) [Example 14]	19.6 µM
CCCCCCc1ccc(NC(=O)N[C@H](C)CCl)cc1 [Example 6]	39.5 µM
CCCCCCc1ccc(NC(=O)N[C@@H](C)CCl)cc1 [Example 7]	11.8 µM
C[C@@H](CCl)NC(=O)Nc1ccc(C2CCCCC2)cc1 [Example 8]	25.2 µM
C[C@H](CCl)NC(=O)Nc1ccc(C2CCCCC2)cc1 [Example 9]	27.6 µM
CCCCCCc1ccc(NC(=O)N[C@H](CC)CCl)cc1 [Example 10]	27.2 µM
CCCCCCc1ccc(NC(=O)N[C@@H](CC)CCl)cc1 [Example 11]	15.8 µM
CC[C@H](CCl)NC(=O)Nc1ccc(C2CCCCC2)cc1 [Example 12]	22.2 µM
CC[C@@H](CCl)NC(=O)Nc1ccc(C2CCCCC2)cc1 [Example 13]	16.2 µM

Test system: Caco-2
Assay: as above
Type: cell-based
Settings: Homo sapiens, day-3, read-out: G50 (concentration inhibiting cell growth by 50%)
Method: as §1, §2, §3, §4, §5, §6, §7, §8

Compound	IC50
CCCCCCc1ccc(NC(=O)NC(CCl)CCC)cc1 (racemic) [Example 14]	12.7 µM
CCCCCCc1ccc(NC(=O)N[C@H](C)CCl)cc1 [Example 6]	35.8 µM
CCCCCCc1ccc(NC(=O)N[C@@H](C)CCl)cc1 [Example 7]	12.6 µM
C[C@@H](CCl)NC(=O)Nc1ccc(C2CCCCC2)cc1 [Example 8]	15.4 µM
C[C@H](CCl)NC(=O)Nc1ccc(C2CCCCC2)cc1 [Example 9]	8.6 µM
CCCCCCc1ccc(NC(=O)N[C@H](CC)CCl)cc1 [Example 10]	10.2 µM
CCCCCCc1ccc(NC(=O)N[C@@H](CC)CCl)cc1 [Example 11]	7.5 µM
CC[C@H](CCl)NC(=O)Nc1ccc(C2CCCCC2)cc1 [Example 12]	10 µM
CC[C@@H](CCl)NC(=O)Nc1ccc(C2CCCCC2)cc1 [Example 13]	9.9 µM

Same assay, conditions: day-3

Compound	C50 (concentration needed to kill 50% of the cellular population present at the beginning)
CCCCCCc1ccc(NC(=O)NC(CCl)CCC)cc1 (racemic) [Example 14]	21.1 µM
CCCCCCc1ccc(NC(=O)N[C@H](C)CCl)cc1 [Example 6]	44.2 µM
CCCCCCc1ccc(NC(=O)N[C@@H](C)CCl)cc1 [Example 7]	21.1 µM
C[C@@H](CCl)NC(=O)Nc1ccc(C2CCCCC2)cc1 [Example 8]	20.3 µM
C[C@H](CCl)NC(=O)Nc1ccc(C2CCCCC2)cc1 [Example 9]	14.7 µM
CCCCCCc1ccc(NC(=O)N[C@H](CC)CCl)cc1 [Example 10]	13.7 µM
CCCCCCc1ccc(NC(=O)N[C@@H](CC)CCl)cc1 [Example 11]	10.9 µM
CC[C@H](CCl)NC(=O)Nc1ccc(C2CCCCC2)cc1 [Example 12]	17.7 µM
CC[C@@H](CCl)NC(=O)Nc1ccc(C2CCCCC2)cc1 [Example 13]	15.6 µM

Test system: MDA-MB-231
Assay: as above
Type: cell-based, human
Settings: Homo sapiens, day-3, read-out: G50 (concentration inhibiting cell growth by 50%)
Method: as §1, §2, §3, §4, §5, §6, §7, §8

Compound	IC50
CCCCCCc1ccc(NC(=O)NC(CCl)CCC)cc1 (racemic) [Example 14]	18.9 µM
CCCCCCc1ccc(NC(=O)N[C@H](C)CCl)cc1 [Example 6]	31.5 µM
CCCCCCc1ccc(NC(=O)N[C@@H](C)CCl)cc1 [Example 7]	11.7 µM
C[C@@H](CCl)NC(=O)Nc1ccc(C2CCCCC2)cc1 [Example 8]	27.6 µM
C[C@H](CCl)NC(=O)Nc1ccc(C2CCCCC2)cc1 [Example 9]	27.5 µM
CCCCCCc1ccc(NC(=O)N[C@H](CC)CCl)cc1 [Example 10]	18 µM
CCCCCCc1ccc(NC(=O)N[C@@H](CC)CCl)cc1 [Example 11]	15.1 µM
CC[C@H](CCl)NC(=O)Nc1ccc(C2CCCCC2)cc1 [Example 12]	19.6 µM
CC[C@@H](CCl)NC(=O)Nc1ccc(C2CCCCC2)cc1 [Example 13]	16.3 µM

Same assay, conditions: day-3

Compound	C50 (concentration needed to kill 50% of the cellular population present at the beginning)
CCCCCCc1ccc(NC(=O)NC(CCl)CCC)cc1 (racemic) [Example 14]	32.3 µM
CCCCCCc1ccc(NC(=O)N[C@H](C)CCl)cc1 [Example 6]	43.3 µM
CCCCCCc1ccc(NC(=O)N[C@@H](C)CCl)cc1 [Example 7]	31.9 µM
C[C@@H](CCl)NC(=O)Nc1ccc(C2CCCCC2)cc1 [Example 8]	42.3 µM
C[C@H](CCl)NC(=O)Nc1ccc(C2CCCCC2)cc1 [Example 9]	42.9 µM
CCCCCCc1ccc(NC(=O)N[C@H](CC)CCl)cc1 [Example 10]	40.6 µM
CCCCCCc1ccc(NC(=O)N[C@@H](CC)CCl)cc1 [Example 11]	30.1 µM
CC[C@H](CCl)NC(=O)Nc1ccc(C2CCCCC2)cc1 [Example 12]	40.3 µM
CC[C@@H](CCl)NC(=O)Nc1ccc(C2CCCCC2)cc1 [Example 13]	32.5 µM

Test system: HT-29
Assay: as above
Type: cell-based, human
Settings: Homo sapiens, day-3, read-out: G50 (concentration inhibiting cell growth by 50%)
Method: as §1, §2, §3, §4, §5, §6, §7, §8

Compound	IC50
CCCCCCc1ccc(NC(=O)NC(CCl)CCC)cc1 (racemic) [Example 14]	10.7 µM
CCCCCCc1ccc(NC(=O)N[C@H](C)CCl)cc1 [Example 6]	32.3 µM
CCCCCCc1ccc(NC(=O)N[C@@H](C)CCl)cc1 [Example 7]	5.1 µM
C[C@@H](CCl)NC(=O)Nc1ccc(C2CCCCC2)cc1 [Example 8]	17.1 µM
C[C@H](CCl)NC(=O)Nc1ccc(C2CCCCC2)cc1 [Example 9]	19 µM
CCCCCCc1ccc(NC(=O)N[C@H](CC)CCl)cc1 [Example 10]	20.8 µM
CCCCCCc1ccc(NC(=O)N[C@@H](CC)CCl)cc1 [Example 11]	13.1 µM
CC[C@H](CCl)NC(=O)Nc1ccc(C2CCCCC2)cc1 [Example 12]	13.6 µM
CC[C@@H](CCl)NC(=O)Nc1ccc(C2CCCCC2)cc1 [Example 13]	9.8 µM

Same assay, conditions: day-3

Compound	C50 (concentration needed to kill 50% of the cellular population present at the beginning)
CCCCCCc1ccc(NC(=O)NC(CCl)CCC)cc1 (racemic) [Example 14]	20.3 µM
CCCCCCc1ccc(NC(=O)N[C@H](C)CCl)cc1 [Example 6]	44.5 µM
CCCCCCc1ccc(NC(=O)N[C@@H](C)CCl)cc1 [Example 7]	12.8 µM
C[C@@H](CCl)NC(=O)Nc1ccc(C2CCCCC2)cc1 [Example 8]	23.9 µM
C[C@H](CCl)NC(=O)Nc1ccc(C2CCCCC2)cc1 [Example 9]	28.1 µM
CCCCCCc1ccc(NC(=O)N[C@H](CC)CCl)cc1 [Example 10]	36.8 µM
CCCCCCc1ccc(NC(=O)N[C@@H](CC)CCl)cc1 [Example 11]	20.8 µM
CC[C@H](CCl)NC(=O)Nc1ccc(C2CCCCC2)cc1 [Example 12]	22.8 µM
CC[C@@H](CCl)NC(=O)Nc1ccc(C2CCCCC2)cc1 [Example 13]	16.3 µM

From patent US6686394B1, “Aryl-chloro-ethyl ureas” (Sovar, Societe en Commandite, priority 1999, dated 2004)
